According to paper PMC7532663, “Pharmacological inhibition of mTORC1 increases CCKBR-specific tumor uptake of radiolabeled minigastrin analogue [^177Lu]Lu-PP-F11N” (Theranostics, 2020):
Where “and” joins values, the source holds several entries; their conditions need not be identical. Equal entries are not always repeated.

Assays:
[1] = test system: A431/CCKBR cells; assay: CellTiter 96 AQueous (MTS) proliferation assay; format: cell-based, human; settings: for Proliferation [A570]: 10 μM kinase inhibitor, MTS absorbance at 570 nm, reference 650 nm, mean of triplicate; for Proliferation (ratio): ratio treatment/control, 10 μM inhibitor
[2] = test system: A431/CCKBR cells; assay: Kinase inhibitor library screen: [177Lu]Lu-PP-F11N cell uptake; format: cell-based, human; settings: ratio treatment/control; 10 μM inhibitor
[3] = test system: A431/CCKBR-tumor bearing nude mice; assay: Tumor volume, mouse weight and toxicity during treatment; format: in vivo
[4] = test system: A431/CCKBR cells; settings: 100 nM RAD001 or 10 mM metformin; for internalization ratio [treatment/control]: 20 h; for [177Lu]Lu-PP-F11N internalization in treated cells: 20 h treatment, 0.3 pmol radioligand 1 h, triplicate
Method: Radioactive medium (and PBS wash) was collected and the cells were washed 2× with glycine buffer (pH=2) for 5 min at RT followed by a dissolving step in 1 M NaOH for 15 min at 37°C. All 3 fractions (medium/PBS; glycine; dissolved cells) were measured on Cobra II Auto-Gamma counter (Packard). For the cell uptake analysis, the PBS-washed cells were directly dissolved in 1M NaOH, or combined glycine-wash and 1M NaOH dissolved cells, were measured on the Gamma counter. […] Protein concentration of cell lysates was measured by using NanoPhotometer® UV-Vis P-Class (Implen).

[5] = test system: A431/CCKBR cells; assay: Total protein concentration of cell lysates; format: cell-based, human; settings: for total protein level compared to control: 100 nM RAD001 or 10 mM metformin, 20 h
Excerpt: (§1) […]. […] […].

[6] = test system: A431/CCKBR-tumor bearing nude mice; settings: for influence on [177Lu]Lu-PP-F11N tumor uptake: three doses of metformin or one RAD001 dose
[7] = test system: mTORC1-regulated phosphorylation of the ribosomal protein S6 at Ser235/236; assay: WB analysis of phospho-S6; format: cell-based, human; settings: for phosphorylation of S6 at Ser235/236 (WB): A431/CCKBR cells, 100 nM RAD001 or 10 mM metformin
Method: (§2) Antibodies against phospho-S6 at S235/S236 (D57.2.2F), ERK1/2 (9102), phospho-ERK1/2 (T202/Y204), GAPDH (14C10) and HA-Tag (C29F4) were obtained from Cell Signaling Technology, whereas the anti-CCKBR (ab77077) was from Abcam. Cells were homogenized in lysis buffer (50 mM Tris-HCl pH 7.5, 150 mM NaCl, 1% Triton X, 0.1% SDS supplemented with 1 mM sodium orthovanadate, 1 mM NaF and protease inhibitor cocktail (Roche)). 50 μg of total protein lysates were separated by SDS-PAGE and transferred to PVDF membranes (Millipore) by electroblotting. Membranes were blocked with 5% skim milk in TBST (0.1% Tween 20) for 1 h, and incubated with 2% BSA in TBST overnight with the primary antibody followed by 2 h incubation with HRP-conjugated secondary antibody. Signals were produced by using a chemiluminescence reagent (ECL) and acquired by ImageQuant RT ECL Imager (GE Healthcare). Prior to CCKBR detection by WB, protein lysates were subjected to deglycosylation. Briefly, 18 μL of total protein lysates (50 µg) were mixed with 2 μL of 10× denaturing buffer (5% SDS, 0.4 M DTT) and incubated for 10 min at RT. Next, 4 μL of 10× Glycobuffer (0.5 M sodium phosphate, pH 7.5), 4 μL of 10% Tween-20 and 10 μL of water were added. Finally, 2 μL of PNGase F (Sigma) was added and the reaction was carried out for 16 h at 37°C.

[8] = test system: A431/CCKBR tumors; assay: HE staining and immunohistochemistry of tumor sections; format: in vivo, mouse; settings: for mitotic index / necrosis (necrotic area) / Ki67 positive cells: 5 days treatment, mean ± SD; for tumor vascularization: HE and CD34, five-day treatment; for necrosis (necrotic area): HE stain; for Ki67 positive cells: IHC
Method: Formalin-fixed, paraffin tumor sections were deparaffinized, rehydrated and pretreated in 10 mM citrate buffer, pH 6.0, at 98 °C for 60 minutes, followed by incubation with 4% fat-free milk in PBS for 90 minutes. For avidin/biotin blocker treatment (Invitrogen) and detection, the ABC method was used. For monoclonal antibody against Ki67 (SP6, Thermo Scientific) and CD34 (cloneQBend/10; Dako) signals were recorded using an automated instrument reagent system (Discovery XT, Ventana Medical System Inc.). Images of hematoxylin-counterstained sections were captured (Nikon, YTHM) and analyzed using ImageAccess Enterprise7 and ImageJ software. Tumor necrotic areas and vascularization were analyzed in 10 (RAD001 and PBS) and 8 (metformin) images, whereas Ki67 and mitotic index in 15 (RAD001 and PBS) and 12 (metformin) images.

[9] = test system: CCKBR; assay: WB analysis of CCKBR protein level in deglycosylated lysates; format: cell-based, human; settings: 50 or 100 nM RAD001, 20 h; A431/CCKBR; CCKBR/GAPDH
Method: as §2

[10] = test system: β-arrestin-2 recruitment to CCKBR; assay: Split luciferase arrestin recruitment assay; format: cell-based, human; settings: RAD001 20 h, then 1 µM PP-F11N
[11] = test system: A431 cells; assay: Total protein concentration of cell lysates; format: cell-based, human; settings: 100 nM RAD001
Excerpt: as §1

[12] = test system: A431/CCKBR cells; assay: Hoechst fluorescence cell number control; format: cell-based, human; settings: RAD001 pretreatment 20 h
[13] = test system: AR42J cells; format: cell-based, rat
Excerpt: as §1

[14] = test system: β-arrestin-1 recruitment to CCKBR; assay: Split luciferase arrestin recruitment assay; format: cell-based, human; settings: RAD001 20 h, then 1 µM PP-F11N
[15] = test system: AR42J cells; assay: Total protein concentration of cell lysates; format: cell-based, rat; settings: 100 nM RAD001
Excerpt: as §1

[16] = in vivo; settings: female, CD-1 nude, mouse, iv, 3 pmol, total radioactivity, Uptake [% i.A./g], PBS group, control PBS-treated mice, 3 pmol i.v., 4 h post injection, mean
[17] = clinical study; cited from earlier work
Excerpt: Overexpression of G-protein coupled receptors (GPCRs) that selectively bind their peptide ligands allowed the development of the peptide receptor radionuclide therapy (PRRT) for human cancers. One of the most important properties of PRRT is a high uptake ratio of tumor-to-healthy-tissue in terms of radiolabeled ligands. Consequently, the molecular strategies which increase uptake of radiopharmaceuticals selectively in cancer tissue while sparing healthy organs from cytotoxic side effects have huge potential to improve PRRT efficacy. Activated GPCRs by agonistic ligand-based radiotherapeuti ...

| SMILES | Proliferation [A570] [1] | Proliferation (ratio) [1] | Uptake (ratio) [2] | mouse weight ([3]; 3 daily doses) | tumor volume ([3]; 3 daily doses) | mouse weight ([3]; 5 days daily treatment) | tumor volume ([3]; 5 days daily treatment) | internalization ratio [treatment/control] [4] | [177Lu]Lu-PP-F11N internalization in treated cells [4] [%] | total protein level compared to control [5] [%] | influence on [177Lu]Lu-PP-F11N tumor uptake [6] | phosphorylation of S6 at Ser235/236 (WB) [7] | mitotic index [8] | tumor vascularization [8] | necrosis (necrotic area) [8] | Ki67 positive cells [8] | further results |
| --- | --- | --- | --- | --- | --- | --- | --- | --- | --- | --- | --- | --- | --- | --- | --- | --- | --- |
| O=C(O)c1ccc2nc(-c3ccccc3)c(-c3ccccc3)nc2c1 [BML-257] | 0.95 | 0.98 | 1.26 | – | – | – | – | – | – | – | – | – | – | – | – | – | – |
| CN(C)C(=N)N=C(N)N [Metformin, metformin] | – | – | – | no effects | no effects | no effects | no effects | 1.3 | 21.1 | 80 | only moderately and did not reach statistical significance | lack of mTORC1-regulated phosphorylation | did not cause a significant change | No significant difference | did not show a significant difference | did not cause a significant change | – |
| CO[C@H]1C[C@@H]2CC[C@@H](C)[C@@](O)(O2)C(=O)C(=O)N2CCCC[C@H]2C(=O)O[C@H]([C@H](C)C[C@@H]2CC[C@@H](OCCO)[C@H](OC)C2)CC(=O)[C@H](C)/C=C(\C)[C@@H](O)[C@@H](OC)C(=O)[C@H](C)C[C@H](C)/C=C/C=C/C=C/1C [RAD001, Everolimus] | – | – | – | without influencing overall mouse weight | significantly reduced tumor volumes | without influencing overall mouse weight | significantly reduced tumor volumes | 1.5 | 24.3 | 79 | only moderately and did not reach statistical significance | lack of mTORC1-regulated phosphorylation | 0.75% and 0.75 ± 0.36% | No significant difference | 10.6 ± 6.4% | 61% and 61 ± 8.6% | increase of CCKBR level [9]: 2.2 fold; effect of RAD001 on β-arrestin-2 recruitment [10]: no difference; total protein level compared to control [11]: 79%; [177Lu]Lu-PP-F11N uptake in tumors of matching sizes ([6]; tumors ranging from 50-150 or 50-180 mg): statistically significant increase; cell number by Hoechst fluorescence [12]: significantly reduced cell number; internalization ratio [RAD001/control] [13]: 1.7; [177Lu]Lu-PP-F11N internalization in treated cells ([13]; 100 nM RAD001): 10%; effect of RAD001 on β-arrestin-1 recruitment [14]: no difference; total protein level compared to control [15]: 84%; S6 phosphorylation (WB) ([7]; 20 h incubation with 50, 100 and 200 nM RAD001, A431/CCKBR): inhibited S6 phosphorylation |
| CO[C@H]1C[C@@H]2CC[C@@H](C)[C@@](O)(O2)C(=O)C(=O)N2CCCC[C@H]2C(=O)O[C@H]([C@H](C)C[C@@H]2CC[C@@H](O)[C@H](OC)C2)CC(=O)[C@H](C)/C=C(\C)[C@@H](O)[C@@H](OC)C(=O)[C@H](C)C[C@H](C)/C=C/C=C/C=C/1C [Rapamycin] | 0.91 | 0.94 | 1.24 | – | – | – | – | – | – | – | – | – | – | – | – | – | decrease of total protein level ([5]; 10 µM, lysates of validation experiment): 26% |
| CCCC[C@H](NC(=O)[C@H](Cc1c[nH]c2ccccc12)NC(=O)CNC(=O)[C@H](Cc1ccc(O)cc1)NC(=O)[C@H](C)NC(=O)[C@@H](CCC(=O)O)NC(=O)[C@@H](CCC(=O)O)NC(=O)[C@@H](CCC(=O)O)NC(=O)[C@@H](CCC(=O)O)NC(=O)[C@@H](CCC(=O)O)NC(=O)[C@@H](CCC(=O)O)NC(=O)CN1CCN(CC(=O)O)CCN(CC(=O)O)CCN(CC(=O)O)CC1)C(=O)N[C@@H](CC(=O)O)C(=O)N[C@@H](Cc1ccccc1)C(N)=O [[^177Lu]Lu-PP-F11N, [^177Lu]Lu-DOTA-(DGlu)6-Ala-Tyr-Gly-Trp-Nle-Asp-Phe-NH2, metal not drawn] | – | – | – | – | – | – | – | – | – | – | – | – | – | – | – | – | tissue uptake at 4 h ([16]; Blood): 0.043 %ID/g; tissue uptake at 4 h ([16]; Bone): 0.37 %ID/g; tissue uptake at 4 h ([16]; Brain): 0.03 %ID/g; tissue uptake at 4 h ([16]; Intestines): 0.23 %ID/g; tissue uptake at 4 h ([16]; Kidney): 3.07 %ID/g; tissue uptake at 4 h ([16]; Liver): 0.17 %ID/g; tissue uptake at 4 h ([16]; Lung): 0.08 %ID/g; tissue uptake at 4 h ([16]; Pancreas): 0.12 %ID/g; tissue uptake at 4 h ([16]; Spleen): 0.1 %ID/g; tissue uptake at 4 h ([16]; Stomach): 1.01 %ID/g; tissue uptake at 4 h ([16]; Tumor, n=6): 10.9 %ID/g; median tumor-to-kidney dose ratio [17]: 11.6; tumor-to-stomach dose ratio [17]: 3.34 |
